This note sets out measurements from ChEMBL document CHEMBL4138231 (Eur J Med Chem, 2018).

Calls of active or inactive are those of the source. The calls are words filed in the database; no cut-off is given here.

In assay [1] the target is Serine/threonine-protein kinase PLK3 (Homo sapiens, UniProt Q9H4B4). As to the kind of experiment: Inhibition human recombinant GST-tagged Plk3 catalytic domain (58 to 340 residues) expressed in baculovirus expression system after 1 hr by FRET-based Z'-Lyte assay.
Sequence of Serine/threonine-protein kinase PLK3 (Q9H4B4 whole entry, the tested form may be a part): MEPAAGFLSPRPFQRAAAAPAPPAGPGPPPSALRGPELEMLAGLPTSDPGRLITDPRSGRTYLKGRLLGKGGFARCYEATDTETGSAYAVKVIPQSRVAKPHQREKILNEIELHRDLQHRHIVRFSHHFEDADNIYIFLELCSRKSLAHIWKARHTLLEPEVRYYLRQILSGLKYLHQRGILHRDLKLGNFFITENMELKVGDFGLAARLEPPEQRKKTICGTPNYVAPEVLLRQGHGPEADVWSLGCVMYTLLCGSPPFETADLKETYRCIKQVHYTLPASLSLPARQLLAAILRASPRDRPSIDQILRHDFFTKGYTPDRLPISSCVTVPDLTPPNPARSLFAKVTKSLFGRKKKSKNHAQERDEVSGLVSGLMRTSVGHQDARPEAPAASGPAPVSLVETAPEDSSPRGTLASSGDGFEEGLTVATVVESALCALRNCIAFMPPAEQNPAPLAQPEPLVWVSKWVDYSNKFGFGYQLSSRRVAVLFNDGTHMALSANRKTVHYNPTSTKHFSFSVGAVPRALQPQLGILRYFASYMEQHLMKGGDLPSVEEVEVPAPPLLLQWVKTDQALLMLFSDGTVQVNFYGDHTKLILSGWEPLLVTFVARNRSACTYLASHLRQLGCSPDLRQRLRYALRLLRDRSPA
The subject of assay [2] is K562. Briefly: Antiproliferative activity against human K562 cells after 72 hrs by CCK8 assay. It counts as functional. The following applies: K562, 72 h. Background: Tetrazolium dyes change colour on reduction, which living cells bring about.
The subject of assay [3] is NCI-H1975. As to the kind of experiment: Antiproliferative activity against human NCI-H1975 cells after 72 hrs by CCK8 assay. Format: functional.
Assay [4] has as its target Serine/threonine-protein kinase PLK1 (Homo sapiens, UniProt P53350). Briefly: Inhibition human recombinant full length His-tagged Plk1 expressed in baculovirus expression system after 1 hr by FRET-based Z'-Lyte assay.
Assay [5] concerns the target Serine/threonine-protein kinase PLK2 (Homo sapiens, UniProt Q9NYY3). Briefly: Inhibition human recombinant full length GST-tagged Plk2 expressed in baculovirus expression system after 1 hr by FRET-based Z'-Lyte assay.
The subject of assay [6] is A549. As to the kind of experiment: Antiproliferative activity against human A549 cells after 72 hrs by CCK8 assay. It counts as functional.
For assay [7], the system named is HeLa. Briefly: Antiproliferative activity against human HeLa cells after 72 hrs by CCK8 assay. Format: functional.
Assay [8] concerns Huh-7. Briefly: Antiproliferative activity against human HuH7 cells after 72 hrs by CCK8 assay. Format: functional.
The subject of assay [9] is MCF7. Briefly: Antiproliferative activity against human MCF7 cells after 72 hrs by CCK8 assay. It counts as functional.

Sequence of Serine/threonine-protein kinase PLK2 (Q9NYY3 whole entry): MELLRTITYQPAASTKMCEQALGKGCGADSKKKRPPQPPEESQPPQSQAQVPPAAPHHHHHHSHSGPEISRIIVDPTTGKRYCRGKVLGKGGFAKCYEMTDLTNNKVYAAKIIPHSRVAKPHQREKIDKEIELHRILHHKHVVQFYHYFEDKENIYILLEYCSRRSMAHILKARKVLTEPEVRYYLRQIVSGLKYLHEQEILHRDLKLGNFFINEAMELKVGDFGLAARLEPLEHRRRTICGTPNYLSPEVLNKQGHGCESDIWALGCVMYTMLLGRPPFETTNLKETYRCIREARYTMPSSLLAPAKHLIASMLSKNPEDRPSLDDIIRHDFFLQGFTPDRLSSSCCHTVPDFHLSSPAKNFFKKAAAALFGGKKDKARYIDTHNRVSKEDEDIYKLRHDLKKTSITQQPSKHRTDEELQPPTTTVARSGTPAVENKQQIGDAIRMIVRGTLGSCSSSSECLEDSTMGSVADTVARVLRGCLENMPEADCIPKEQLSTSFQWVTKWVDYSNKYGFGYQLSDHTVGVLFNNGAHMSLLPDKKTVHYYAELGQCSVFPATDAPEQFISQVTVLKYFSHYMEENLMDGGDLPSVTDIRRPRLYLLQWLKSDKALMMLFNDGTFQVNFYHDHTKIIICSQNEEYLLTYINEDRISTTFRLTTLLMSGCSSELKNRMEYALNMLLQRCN
Sequence of Serine/threonine-protein kinase PLK1 (P53350 whole entry): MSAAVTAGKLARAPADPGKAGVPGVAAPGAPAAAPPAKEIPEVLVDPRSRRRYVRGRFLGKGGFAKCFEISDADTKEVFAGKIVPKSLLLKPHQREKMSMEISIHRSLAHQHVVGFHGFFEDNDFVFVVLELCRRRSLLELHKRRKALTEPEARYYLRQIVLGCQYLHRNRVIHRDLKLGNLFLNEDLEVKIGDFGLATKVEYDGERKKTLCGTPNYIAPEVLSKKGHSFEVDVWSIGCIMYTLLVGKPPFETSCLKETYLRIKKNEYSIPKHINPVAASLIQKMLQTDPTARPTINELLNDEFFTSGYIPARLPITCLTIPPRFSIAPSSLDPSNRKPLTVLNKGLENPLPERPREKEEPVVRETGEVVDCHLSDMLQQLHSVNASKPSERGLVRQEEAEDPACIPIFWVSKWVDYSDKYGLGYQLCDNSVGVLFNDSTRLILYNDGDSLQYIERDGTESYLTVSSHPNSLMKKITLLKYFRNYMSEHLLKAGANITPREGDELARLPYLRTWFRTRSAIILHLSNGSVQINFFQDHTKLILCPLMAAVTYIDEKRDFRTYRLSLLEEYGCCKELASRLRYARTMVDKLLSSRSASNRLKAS

As to `CCC1C(=O)N(C)c2cnc(-n3ccc4cc(F)ccc43)nc2N1c1ccn(C)n1` (racemic), the concentration for half-maximal inhibition (IC50) (as a rule, the midpoint of a concentration-inhibition curve) in assay [1] is greater than 10 µM; in assay [4], greater than 10 µM; in assay [5], 1.5 µM. Also, the GI50 (commonly the concentration that inhibits growth by half) was determined as 6.07 µM in assay [2]; 28.6 µM in assay [3] (NCI-H1975, 72 h); 24.7 µM in assay [9] (MCF7, 72 h). The GI50 result in [6], in assay [7] and in [8] was “inactive” in each case.
Take `CC[C@@H]1C(=O)N(C)c2cnc(-n3ccc4ccccc43)nc2N1C1CCCC1`: in assay [1], the IC50 is greater than 20 µM. In addition, the GI50 in [2] worked out at 6.91 µM; in [3] (NCI-H1975, 72 h), 28.3 µM; in assay [6] (A549, 72 h), 57.5 µM; in assay [7], 33.9 µM; in assay [8] (Huh-7, 72 h) it was 4.69 µM; in [9] (MCF7, 72 h), 17.2 µM.
As for `CCC1C(=O)N(C)c2cnc(-n3ccc4cc(C(=O)NC)ccc43)nc2N1c1ccn(C)n1` (racemic), the IC50 was greater than 10 µM in assay [1] and 0.218 µM in assay [5]. The GI50 came to 13.3 µM in [2]; 35.7 µM in assay [3] (NCI-H1975, 72 h); 43.1 µM in assay [6] (A549, 72 h); 6.33 µM in assay [7]; 13.2 µM in [8] (Huh-7, 72 h); 35.4 µM in [9] (MCF7, 72 h).
Turning to `CCC1C(=O)N(C)c2cnc(-n3ccc4cc(C(=O)NC(C)C)ccc43)nc2N1c1ccn(C)n1` (racemic), the half-maximal inhibitory concentration (IC50) in assay [1] was greater than 10 µM; in [5], 0.124 µM. The 50% growth inhibitory concentration (GI50) is 8.91 µM in assay [2]; 12.2 µM in assay [3] (NCI-H1975, 72 h); 22 µM in [6] (A549, 72 h); 4.35 µM in assay [7]; 6.74 µM in assay [8] (Huh-7, 72 h); 8.42 µM in assay [9] (MCF7, 72 h).
Turning to `CCC1C(=O)N(C)c2cnc(-n3ccc4cc(C(=O)NCC(C)C)ccc43)nc2N1c1ccn(C)n1` (racemic), the values for the IC50 in assay [1] and in assay [5] were greater than 10 µM and 0.159 µM, respectively. For the same compound, the GI50 was determined as 5.6 µM in assay [2]; 10.2 µM in assay [3] (NCI-H1975, 72 h); 19.2 µM in assay [6] (A549, 72 h); 4.97 µM in assay [7]; 5.07 µM in assay [8] (Huh-7, 72 h); 4.81 µM in [9] (MCF7, 72 h).
In the case of `CCC1C(=O)N(C)c2cnc(-n3ccc4cc(C(N)=O)ccc43)nc2N1c1ccn(C)n1` (racemic), the IC50 in assay [1] was greater than 10 µM; in [5], 0.384 µM. Moreover, the GI50 amounted to 31.3 µM in assay [2]; 39.5 µM in assay [6] (A549, 72 h); 27.4 µM in [7]. Also, the GI50 result in [3], in assay [8] and in assay [9] was “inactive” each time.
`CCC1C(=O)N(C)c2cnc(Nc3ccc(S(=O)(=O)NCCCO)cc3)nc2N1c1ccn(C)n1` (racemic): the GI50 in assay [2] came out at 13.4 µM; in assay [3] (NCI-H1975, 72 h), 25.8 µM; in assay [6] (A549, 72 h), 48.9 µM; in [7] it was 23.7 µM; in [9] (MCF7, 72 h) it was 21.6 µM. Moreover, the IC50 in [5] turned out to be 0.192 µM. In addition, the GI50 entry in assay [8] was “inactive”.
Regarding `CCCNC(=O)c1ccc2c(ccn2-c2ncc3c(n2)N(c2ccn(C)n2)C(CC)C(=O)N3C)c1` (racemic), the values for the IC50 in [1] and in [5] were greater than 10 µM and 0.207 µM, respectively. In addition, the GI50 in [2] was 8.27 µM; in assay [3] (NCI-H1975, 72 h) it was 11 µM; in assay [7], 6.16 µM; in [8] (Huh-7, 72 h) it was 7.28 µM; in assay [9] (MCF7, 72 h), 6.42 µM. Besides, the GI50 entry in assay [6] was “inactive”.
`CCCCNC(=O)c1ccc2c(ccn2-c2ncc3c(n2)N(c2ccn(C)n2)C(CC)C(=O)N3C)c1` (racemic): the IC50 in assay [1] is greater than 10 µM; in assay [5], 0.159 µM. Moreover, the GI50 in assay [2] was determined as 14.1 µM; in assay [3] (NCI-H1975, 72 h) it was 12 µM; in assay [6] (A549, 72 h) it was 37.3 µM; in assay [7] it was 4.26 µM; in assay [8] (Huh-7, 72 h), 8.67 µM; in [9] (MCF7, 72 h) it was 8.99 µM.
For `CCCNC(=O)c1ccc2c(ccn2-c2ncc3c(n2)N(C2CCCC2)[C@H](CC)C(=O)N3C)c1`, the GI50 in assay [2] was 0.395 µM; in assay [3] (NCI-H1975, 72 h), 0.786 µM; in assay [6] (A549, 72 h) it was 1.64 µM; in assay [7], 0.238 µM; in [8] (Huh-7, 72 h), 0.689 µM; in assay [9] (MCF7, 72 h) it was 0.592 µM. Moreover, the IC50 in assay [5] was found to be 0.0114 µM.
As for `CC[C@@H]1C(=O)N(C)c2cnc(-n3ccc4cc(C(=O)NC5CCCC5)ccc43)nc2N1C1CCCC1`, the figures for the IC50 in assay [1] and in [5] were greater than 20 µM and 0.00706 µM, respectively. For the same compound, the GI50 in assay [2] is 0.414 µM; in [3] (NCI-H1975, 72 h), 0.856 µM; in assay [6] (A549, 72 h), 0.67 µM; in assay [7], 0.247 µM; in assay [8] (Huh-7, 72 h), 0.259 µM; in assay [9] (MCF7, 72 h), 0.795 µM.
Regarding `CCCCNS(=O)(=O)c1ccc(Nc2ncc3c(n2)N(C2CCCC2)[C@H](CC)C(=O)N3C)cc1`, the GI50 was determined as 0.412 µM in [2]; 1.61 µM in assay [3] (NCI-H1975, 72 h); 0.477 µM in [6] (A549, 72 h); 0.451 µM in assay [7]; 0.225 µM in [8] (Huh-7, 72 h); 0.459 µM in [9] (MCF7, 72 h). Besides, in assay [5], the IC50 was 0.0199 µM.
Regarding `CC[C@@H]1C(=O)N(C)c2cnc(-n3ccc4cc(F)ccc43)nc2N1C1CCCC1`, the IC50 in assay [1] was greater than 20 µM; in [5] it was 0.969 µM. For the same compound, the GI50 in [2] came to 21.2 µM; in assay [3] (NCI-H1975, 72 h), 46.5 µM; in [8] (Huh-7, 72 h), 16 µM. Besides, the GI50 entry in [6], in assay [7] and in assay [9] was “inactive” in each case.
As for `CCCCNS(=O)(=O)c1ccc(Nc2ncc3c(n2)N(c2ccn(C)n2)C(CC)C(=O)N3C)cc1` (racemic), the GI50 was 4.24 µM in assay [2]; 4.12 µM in assay [3] (NCI-H1975, 72 h); 10.6 µM in [6] (A549, 72 h); 4.32 µM in [7]; 3.75 µM in assay [8] (Huh-7, 72 h); 5.78 µM in assay [9] (MCF7, 72 h). The IC50 in [5] amounted to 0.191 µM.
For the compound `CC[C@@H]1C(=O)N(C)c2cnc(Nc3ccc(S(=O)(=O)NCCO)cc3)nc2N1C1CCCC1`, the GI50 worked out at 0.546 µM in assay [2]; 2.1 µM in assay [3] (NCI-H1975, 72 h); 0.563 µM in assay [6] (A549, 72 h); 0.459 µM in assay [7]; 0.278 µM in [8] (Huh-7, 72 h); 0.344 µM in [9] (MCF7, 72 h). Also, the 50% inhibitory concentration (IC50) in assay [5] was determined as 0.00786 µM.
As to `CCNC(=O)c1ccc2c(ccn2-c2ncc3c(n2)N(c2ccn(C)n2)C(CC)C(=O)N3C)c1` (racemic), the IC50 in assay [1] is greater than 10 µM; in assay [5] it was 0.243 µM. Also, the GI50 came out at 12.8 µM in assay [2]; 21.7 µM in [6] (A549, 72 h); 11.1 µM in assay [7]; 20.3 µM in assay [8] (Huh-7, 72 h); 13.2 µM in assay [9] (MCF7, 72 h). Further, the GI50 entry in assay [3] was “inactive”.
